Results on two molecules are retold here after PMC10451032 (ACS Central Science, 2023).

Assay [1] concerns rNsp5^H172Y recombinant SARS-CoV-2. Type of assay: cell-based.
The subject of assay [2] is rNsp5^E166Q recombinant SARS-CoV-2. It is filed as cell-based.
In assay [3] the target is Mpro G15S, T21I, L89F, K90R, P108S, P132H, and L205V. Particulars: cited from earlier work.
The next assay deals with eight Q189 mutants. It is filed as biochemical, SARS-CoV-2.
Another assay addresses Mpro S144A. Particulars: cited from earlier work.
Another assay has as its system Mpro H172Y. Particulars: cited from earlier work.
The test system of assay [4] is rNsp5^H172Q recombinant SARS-CoV-2. It is filed as cell-based.
Assay [5] deals with rNsp5^S144M recombinant SARS-CoV-2. It is filed as cell-based.
Assay [6] deals with rNsp5^S144A recombinant SARS-CoV-2. Type of assay: cell-based.
For assay [7], the system named is Mpro M49I, M49T, M49L, and M49V. Type of assay: biochemical, SARS-CoV-2.
The test system of assay [8] is top nine high-frequency mutants at residue N142. It is filed as biochemical, SARS-CoV-2.
Assay [9] deals with Mpro Q192T, Q192S, Q192L, Q192A, Q192I, Q192P, Q192H, Q192V, Q192W, Q192C, and Q192F. Type of assay: biochemical, SARS-CoV-2.

SMILES strings stand for the structures.

As a reminder, the EC50 is the concentration needed to bring the measured effect to its halfway point. As to `CC(C)(C)[C@H](NC(=O)C(F)(F)F)C(=O)N1C[C@H]2[C@@H]([C@H]1C(=O)N[C@H](C#N)C[C@@H]1CCNC1=O)C2(C)C` [nirmatrelvir], the EC50 in [1] worked out at 378 ± 10.2 nM; in assay [2], 69.7 nM; in [4], 133 ± 2.86 nM; in assay [5], 87.1 ± 3.06 nM; in [6] it was 127 nM. Besides, the “EC50 fold increase compared to rNsp5^WT” value was 2.7 fold in assay [2], 5.2 fold in assay [4], 3.4 fold in assay [5] and 5.0 fold in [6]. The “IC50 or Ki value shifts” value in assay [3] is recorded as under 2 fold. Further, the “change in IC50 vs WT” value in the assay with eight Q189 mutants is under 3.1 fold; in [7] it was under 3 fold; in assay [8] it was under 3.5 fold. The Ki increase on Mpro S144A is 91.9 fold. Moreover, the “increase in Ki” value with Mpro H172Y is reported as 233 fold.

Take `CC(C)C[C@H](NC(=O)OCc1ccccc1)C(=O)N[C@@H](CC1CCNC1=O)C(O)S(=O)(=O)[O-].[Na+]` (stereo partly shown) [GC-376]: in assay [9], the “Cross-resistance (fold vs WT)” value is on record as over 7.7 fold.
